# PubChem BioAssay AID1963440 (Molecular Pharmacology Branch, DTP, NCI, 2024)
# pIC50: −log10 of the molar value.
# System: NCI-H1417 complex spheroids, growth % test/control
# Experiment: Anticancer human tumor NCI-H1417 cell line growth inhibition [Asc];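 also: spheroids exposed to compounds for 7 days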;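 as to viability, T/C: 100% = DMSO vehicle control wells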
# Details: for pIC50: curve of first compound; for viability, T/C: stronger effect = lower value
# Summary of the method: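 Concentration series start at each agent's clinical Cmax, or at 10 microM when none is established, and drop in half-log steps; agents are applied alone or together to complex spheroids built with HUVEC and hMSC.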
# [1] = second compound 0.01 µM, first compound 0.0316 µM
# [2] = second compound 0.01 µM, first compound 0.1 µM
# [3] = second compound 0.0316 µM, first compound 0.0316 µM
# [4] = second compound 0.0316 µM, first compound 0.1 µM
# [5] = second compound 0.1 µM, first compound 0.0316 µM
# [6] = second compound 0.1 µM, first compound 0.1 µM
# [7] = second compound 0.316 µM, first compound 0.0316 µM
# [8] = second compound 0.316 µM, first compound 0.1 µM
# [9] = second compound 1 µM, first compound 0.0316 µM
# [10] = second compound 1 µM, first compound 0.1 µM
smiles,measurement,setting,value
Cc1nc(N2CCC3(CC2)COC(C)C3N)c(CO)nc1Sc1ccnc(N)c1Cl (configuration not stated) + CNC(C)C(=O)NC1CN(S(=O)(=O)c2cccc(S(=O)(=O)N3CCC4CCC(C(=O)NC(c5ccccc5)c5ccccc5)N4C(=O)C(NC(=O)C(C)NC)C3)c2)CCC2CCC(C(=O)NC(c3ccccc3)c3ccccc3)N2C1=O,pIC50,second compound 0.00316 µM,< 5.52
same,pIC50,second compound 0.01 µM,< 5.52
same,pIC50,second compound 0.0316 µM,< 5.52
same,pIC50,second compound 0.1 µM,< 5.52
same,pIC50,second compound 0.316 µM,< 5.52
same,pIC50,second compound 1 µM,< 5.52
same,"viability, T/C","second compound 0.00316 µM, first compound 0.00949 µM",99.4%
same,"viability, T/C","second compound 0.00316 µM, first compound 0.03 µM",89%
same,"viability, T/C","second compound 0.00316 µM, first compound 0.0949 µM",85.8%
same,"viability, T/C","second compound 0.00316 µM, first compound 0.3 µM",81.9%
same,"viability, T/C","second compound 0.00316 µM, first compound 0.949 µM",93.4%
same,"viability, T/C","second compound 0.00316 µM, first compound 3 µM",92.6%
same,"viability, T/C","second compound 0.01 µM, first compound 0.00949 µM",91.9%
same,"viability, T/C","second compound 0.01 µM, first compound 0.03 µM",100%
same,"viability, T/C","second compound 0.01 µM, first compound 0.0949 µM",89.3%
same,"viability, T/C","second compound 0.01 µM, first compound 0.3 µM",87.8%
same,"viability, T/C","second compound 0.01 µM, first compound 0.949 µM",96.9%
same,"viability, T/C","second compound 0.01 µM, first compound 3 µM",84.1%
same,"viability, T/C","second compound 0.0316 µM, first compound 0.00949 µM",93.9%
same,"viability, T/C","second compound 0.0316 µM, first compound 0.03 µM",92.2%
same,"viability, T/C","second compound 0.0316 µM, first compound 0.0949 µM",101%
same,"viability, T/C","second compound 0.0316 µM, first compound 0.3 µM",83.6%
same,"viability, T/C","second compound 0.0316 µM, first compound 0.949 µM",98.2%
same,"viability, T/C","second compound 0.0316 µM, first compound 3 µM",79%
same,"viability, T/C","second compound 0.1 µM, first compound 0.00949 µM",87.5%
same,"viability, T/C","second compound 0.1 µM, first compound 0.03 µM",86.6%
same,"viability, T/C","second compound 0.1 µM, first compound 0.0949 µM",91.7%
same,"viability, T/C","second compound 0.1 µM, first compound 0.3 µM",86.2%
same,"viability, T/C","second compound 0.1 µM, first compound 0.949 µM",86.9%
same,"viability, T/C","second compound 0.1 µM, first compound 3 µM",86.2%
same,"viability, T/C","second compound 0.316 µM, first compound 0.00949 µM",82.8%
same,"viability, T/C","second compound 0.316 µM, first compound 0.03 µM",90.2%
same,"viability, T/C","second compound 0.316 µM, first compound 0.0949 µM",88%
same,"viability, T/C","second compound 0.316 µM, first compound 0.3 µM",88.8%
same,"viability, T/C","second compound 0.316 µM, first compound 0.949 µM",84.1%
same,"viability, T/C","second compound 0.316 µM, first compound 3 µM",94.2%
same,"viability, T/C","second compound 1 µM, first compound 0.00949 µM",78.1%
same,"viability, T/C","second compound 1 µM, first compound 0.03 µM",98.6%
same,"viability, T/C","second compound 1 µM, first compound 0.0949 µM",90.2%
same,"viability, T/C","second compound 1 µM, first compound 0.3 µM",89.8%
same,"viability, T/C","second compound 1 µM, first compound 0.949 µM",83.7%
same,"viability, T/C","second compound 1 µM, first compound 3 µM",87.7%
Cn1ncnc1[C@H]1c2n[nH]c(=O)c3cc(F)cc(c23)N[C@@H]1c1ccc(F)cc1 + CNC(C)C(=O)NC1CN(S(=O)(=O)c2cccc(S(=O)(=O)N3CCC4CCC(C(=O)NC(c5ccccc5)c5ccccc5)N4C(=O)C(NC(=O)C(C)NC)C3)c2)CCC2CCC(C(=O)NC(c3ccccc3)c3ccccc3)N2C1=O,pIC50,second compound 0.01 µM,< 7.00
same,pIC50,second compound 0.0316 µM,< 7.00
same,pIC50,second compound 0.1 µM,< 7.00
same,pIC50,second compound 0.316 µM,< 7.00
same,pIC50,second compound 1 µM,< 7.00
same,"viability, T/C","second compound 0.01 µM, first compound 0.000316 µM",110%
same,"viability, T/C","second compound 0.01 µM, first compound 0.001 µM",115%
same,"viability, T/C","second compound 0.01 µM, first compound 0.00316 µM",96.8%
same,"viability, T/C","second compound 0.01 µM, first compound 0.01 µM",81.1%
same,"viability, T/C",[1],69.4%
same,"viability, T/C",[2],85.3%
same,"viability, T/C","second compound 0.0316 µM, first compound 0.000316 µM",104%
same,"viability, T/C","second compound 0.0316 µM, first compound 0.001 µM",98.8%
same,"viability, T/C","second compound 0.0316 µM, first compound 0.00316 µM",94%
same,"viability, T/C","second compound 0.0316 µM, first compound 0.01 µM",87.4%
same,"viability, T/C",[3],69%
same,"viability, T/C",[4],80.2%
same,"viability, T/C","second compound 0.1 µM, first compound 0.000316 µM",95.8%
same,"viability, T/C","second compound 0.1 µM, first compound 0.001 µM",93%
same,"viability, T/C","second compound 0.1 µM, first compound 0.00316 µM",90.9%
same,"viability, T/C","second compound 0.1 µM, first compound 0.01 µM",78.3%
same,"viability, T/C",[5],66.9%
same,"viability, T/C",[6],74%
same,"viability, T/C","second compound 0.316 µM, first compound 0.000316 µM",99.6%
same,"viability, T/C","second compound 0.316 µM, first compound 0.001 µM",110%
same,"viability, T/C","second compound 0.316 µM, first compound 0.00316 µM",102%
same,"viability, T/C","second compound 0.316 µM, first compound 0.01 µM",78.5%
same,"viability, T/C",[7],64.3%
same,"viability, T/C",[8],70.1%
same,"viability, T/C","second compound 1 µM, first compound 0.000316 µM",98%
same,"viability, T/C","second compound 1 µM, first compound 0.001 µM",112%
same,"viability, T/C","second compound 1 µM, first compound 0.00316 µM",95.4%
same,"viability, T/C","second compound 1 µM, first compound 0.01 µM",81.3%
same,"viability, T/C",[9],80%
same,"viability, T/C",[10],84.4%
O=C(c1cc(Cc2n[nH]c(=O)c3ccccc23)ccc1F)N1CCN(C(=O)C2CC2)CC1 + CNC(C)C(=O)NC1CN(S(=O)(=O)c2cccc(S(=O)(=O)N3CCC4CCC(C(=O)NC(c5ccccc5)c5ccccc5)N4C(=O)C(NC(=O)C(C)NC)C3)c2)CCC2CCC(C(=O)NC(c3ccccc3)c3ccccc3)N2C1=O,pIC50,second compound 0.01 µM,5.24
same,pIC50,second compound 0.0316 µM,5.20
same,pIC50,second compound 0.1 µM,5.32
same,pIC50,second compound 0.316 µM,5.26
same,pIC50,second compound 1 µM,5.27
same,"viability, T/C",[1],101%
same,"viability, T/C",[2],101%
same,"viability, T/C","second compound 0.01 µM, first compound 0.316 µM",94.7%
same,"viability, T/C","second compound 0.01 µM, first compound 1 µM",83.6%
same,"viability, T/C","second compound 0.01 µM, first compound 3.16 µM",65.6%
same,"viability, T/C","second compound 0.01 µM, first compound 10 µM",36.1%
same,"viability, T/C",[3],102%
same,"viability, T/C",[4],87.8%
same,"viability, T/C","second compound 0.0316 µM, first compound 0.316 µM",88.5%
same,"viability, T/C","second compound 0.0316 µM, first compound 1 µM",100%
same,"viability, T/C","second compound 0.0316 µM, first compound 3.16 µM",71.5%
same,"viability, T/C","second compound 0.0316 µM, first compound 10 µM",35.8%
same,"viability, T/C",[5],90.3%
same,"viability, T/C",[6],93.5%
same,"viability, T/C","second compound 0.1 µM, first compound 0.316 µM",81.8%
same,"viability, T/C","second compound 0.1 µM, first compound 1 µM",90%
same,"viability, T/C","second compound 0.1 µM, first compound 3.16 µM",60.7%
same,"viability, T/C","second compound 0.1 µM, first compound 10 µM",30.9%
same,"viability, T/C",[7],99.9%
same,"viability, T/C",[8],92.3%
same,"viability, T/C","second compound 0.316 µM, first compound 0.316 µM",96.7%
same,"viability, T/C","second compound 0.316 µM, first compound 1 µM",85.6%
same,"viability, T/C","second compound 0.316 µM, first compound 3.16 µM",68.8%
same,"viability, T/C","second compound 0.316 µM, first compound 10 µM",30%
same,"viability, T/C",[9],97.7%
same,"viability, T/C",[10],90%
same,"viability, T/C","second compound 1 µM, first compound 0.316 µM",91.2%
same,"viability, T/C","second compound 1 µM, first compound 1 µM",95%
same,"viability, T/C","second compound 1 µM, first compound 3.16 µM",65.5%
same,"viability, T/C","second compound 1 µM, first compound 10 µM",32%
